Earlier results, collected in patent US20160271121A1, “ANTIFUNGAL COMBINATION THERAPY” (Gavis Pharmaceuticals, priority 2015, published 2016).

How the values were obtained:
onychomycosis = settings: 48 weeks of topical efinaconazole
reference strains = settings: in vitro, versus other antifungals

SMILES: C=C1CCN([C@H](C)[C@](O)(Cn2cncn2)c2ccc(F)cc2F)CC1 [Efinaconazole, (2R,3R)-2-(2,4-difluorophenyl)-3-(4-methylenepiperidin-1-yl)-1-(1H-1,2,4-triazol-1-yl)butan-2-ol]
- mycological cure rate compared with other antifungal agents (onychomycosis): more than that for 48 weeks of topical ciclopirox and comparable to 12 weeks of oral itraconazole
- potency in broth dilution tests (reference strains): more potent than terbinafine, ciclopirox, itraconazole, and amorolfine
